Common to all, as to assay type: biochemical
In one experiment the target is human thrombin (Homo sapiens, UniProt P00734). Briefly: Thrombin Assay. How it is done: (§1) 0.28 nM human thrombin and 0.06 mM H-D-Phenylalanyl-L-pipecolyl-L, arginine-nitroaniline, dihydrochloride are added to a 96-well assay plate containing either inhibitor or buffer (50 mM Tris-HCl, pH 8.0, 100 mM NaCl, 0.1% BSA). The reaction, in a final volume of 100 ul is measured immediately at 405 nm to determine background absorbance. The plate is incubated at room temperature for 60 min, at which time the rate of hydrolysis of the substrate is measured by monitoring the reaction at 405 nm for the release of pnitroaniline. Percent inhibition of thrombin activity is calculated from OD405nm value from the experimental and control sample.
(§2) Recombinant soluble TF, consisting of amino acids 1-219 of the mature protein sequence was expressed in E. coli and purified using a Mono Q Sepharose FPLC. Recombinant human […] was purchased from American Diagnostica, Greenwich Cr and chromogenic substrate N-Methylsulfonyl-D-phe-gly-arg-pnitroaniline was prepared by American Peptide Company, Inc., Sunnyvale, Calif. Factor Xa was obtained from Enzyme Research Laboratories, South Bend IN, thrombin from Calbiochem, La Jolla, Calif., and trypsin and L-BAPNA from Sigma, St. Louis Mo. The chromogenic substrates S-2765 and S-2238 were purchased from Chromogenix, Sweden.

Experiment [1] concerns the target T1, TF-VIIa (recombinant soluble tissue factor and recombinant human factor VIIa) (Homo sapiens, UniProt P08709).
T1 construct: purchased American Diagnostica, Greenwich; host or cells: soluble TF made in house in E. coli
Briefly: TF-VIIa Assay. As to conditions: chromogenic substrate, 60 min at room temperature, OD 405 nm; read-out: IC50 or % Inhibition TF-VIIa (30 µM): IC50. The protocol:
In this assay 100 nM recombinant soluble tissue factor and 2 nM recombinant human factor VIIa are added to a 96-well assay plate containing 0.4 mM of the substrate, N-Methylsulfonyl-D-phe-gly-arg-p-nitroaniline and either inhibitor or buffer (5 mM CaCl2, 50 mM Tris-HCl, pH 8.0, 100 mM NaCl, 0.1% BSA). The reaction, in a final volume of 100 ul is measured immediately at 405 nm to determine background absorbance. The plate is incubated at room temperature for 60 min, at which time the rate of hydrolysis of the substrate is measured by monitoring the reaction at 405 nm for the release of p-nitroaniline. Percent inhibition of TF-VIIa activity is calculated from OD405nm value from the experimental and control sample.
as §2

The next experiment addresses T2, human factor Xa (Homo sapiens, UniProt P00742).
T2 construct: purchased Enzyme Research Laboratories, South Bend IN
Briefly: Xa Assay. As to conditions: read-out: IC50 or % Inhibition Factor Xa (30 µM): % inhibition. How it is done: as §1, with “0.3 nM” for “0.28 nM”, “human factor Xa” for “human thrombin”, “and 0.15” for “and 0.06”, “mM N-a-Benzyloxycarbonyl-D-arginyl-L-glycyl-L-arginne-nitroaniline-dihydrochloride (S-2765)” for “mM H-D-Phenylalanyl-L-pipecolyl-L, arginine-nitroaniline, dihydrochloride”, “of p-nitroaniline.” for “of pnitroaniline.”, “of Xa” for “of thrombin”
as §2

Experiment [2] concerns the target T3, trypsin, type IX from porcine pancreas (Sus scrofa, UniProt P00761).
T3 construct: purchased Sigma, St. Louis Mo; host or cells: porcine pancreas
Briefly: Trypsin Assay. As to conditions: chromogenic substrate L-BAPNA, 60 min at room temperature, OD 405 nm; read-out: IC50 or % Inhibition Trpysin II (30 µM): IC50. The protocol: 5 ug/ml trypsin, type IX from porcine pancreas and 0.375 mM N-α-Benzoyl-L-arginine-p-nitroanilide (LBAPNA) are added to a 96-well assay plate containing either inhibitor or buffer (50 mM Tris-HCl, pH 8.0, 100 mM NaCl, 0.1% BSA). The reactions, in a final volume of 100 ul are measured immediately at 405 nm to determine background absorbance. The plate is incubated at room temperature for 60 min, at which time the rate of hydrolysis of the substrate is measured by monitoring the reaction at 405 nm for the release of p-nitroaniline. Percent inhibition of trypsin activity is calculated from OD405nm value from the experimental and control sample.
as §2

T2 sequence (P00742 235-488 limits assumed): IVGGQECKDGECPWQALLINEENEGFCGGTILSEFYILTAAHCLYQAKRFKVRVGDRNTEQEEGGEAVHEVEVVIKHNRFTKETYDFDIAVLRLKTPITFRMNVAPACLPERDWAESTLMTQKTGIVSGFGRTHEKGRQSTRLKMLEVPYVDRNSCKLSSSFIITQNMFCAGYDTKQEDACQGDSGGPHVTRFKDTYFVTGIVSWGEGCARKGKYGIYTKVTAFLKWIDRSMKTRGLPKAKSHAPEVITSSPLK
T2 sequence (P00742 41-179 partner limits assumed): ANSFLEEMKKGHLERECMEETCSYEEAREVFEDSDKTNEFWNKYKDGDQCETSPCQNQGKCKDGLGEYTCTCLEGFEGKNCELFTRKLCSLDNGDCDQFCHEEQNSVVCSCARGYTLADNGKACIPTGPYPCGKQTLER
T3 sequence (P00761 9-231): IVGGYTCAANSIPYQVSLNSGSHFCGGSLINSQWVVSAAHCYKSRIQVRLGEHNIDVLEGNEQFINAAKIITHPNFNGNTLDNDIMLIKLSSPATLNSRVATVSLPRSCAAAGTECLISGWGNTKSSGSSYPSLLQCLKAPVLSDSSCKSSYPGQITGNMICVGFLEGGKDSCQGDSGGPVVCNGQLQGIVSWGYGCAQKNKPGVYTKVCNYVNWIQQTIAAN
T1 sequence (P08709 213-466 limits assumed): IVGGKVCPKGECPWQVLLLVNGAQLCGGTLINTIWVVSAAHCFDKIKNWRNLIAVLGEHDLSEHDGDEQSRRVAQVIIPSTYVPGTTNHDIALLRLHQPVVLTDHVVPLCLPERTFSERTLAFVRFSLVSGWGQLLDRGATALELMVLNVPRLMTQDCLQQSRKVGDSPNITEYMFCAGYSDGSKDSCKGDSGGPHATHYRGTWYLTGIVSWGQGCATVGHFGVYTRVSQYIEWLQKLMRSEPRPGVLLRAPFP
T1 sequence (P08709 61-212 partner limits assumed): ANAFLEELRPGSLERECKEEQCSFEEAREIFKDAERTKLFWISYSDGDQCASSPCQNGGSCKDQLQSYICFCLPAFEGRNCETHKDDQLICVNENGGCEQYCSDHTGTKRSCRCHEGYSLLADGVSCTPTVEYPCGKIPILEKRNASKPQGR
T1 sequence (P13726 33-251 partner limits assumed): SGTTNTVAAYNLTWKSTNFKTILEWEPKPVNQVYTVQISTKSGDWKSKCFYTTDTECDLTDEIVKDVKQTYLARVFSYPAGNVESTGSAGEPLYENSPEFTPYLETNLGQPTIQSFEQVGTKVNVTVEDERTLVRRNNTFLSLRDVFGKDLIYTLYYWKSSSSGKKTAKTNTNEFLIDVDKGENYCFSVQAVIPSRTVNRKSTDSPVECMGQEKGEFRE

Take `CC(C)Nc1cn(C)c(-c2cccc(N)c2)c(CC(=O)NCc2ccc(C(=N)N)cc2)c1=O` [Example 1]: the IC50 on human thrombin (chromogenic substrate, 60 min at room temperature, OD 405 nm, read-out: IC50 or % Inhibition Thrombin (30 µM): IC50) amounted to 100000 nM; in experiment [1] it was 280 nM; in experiment [2], 33 nM. Also, the inhibition at 100 µM at human factor Xa amounted to 32%.

On to `CCCn1cc(NC(C)C)c(=O)c(CC(=O)NCc2ccc(C(=N)N)cc2)c1-c1cccc(N)c1` [Example 2], for which the inhibition at 100 µM amounted to 45% on human thrombin (at 100 μM, read-out: IC50 or % Inhibition Thrombin (30 µM): % inhibition) and 34% on human factor Xa. The IC50 in experiment [1] was 560 nM; in experiment [2] it was 151 nM.

The record behind these values is patent publication US20030236257A1, “Polycyclic aryl and heteroaryl substituted 4-pyridones useful for selective inhibition of the cogulation cascade” (priority 2003, published 2003).
